Literature values, collected in US20130078304A1, “CONTROLLED RELEASE FORMULATION FOR TREATING SLEEP DISORDERS” (TAIWAN BIOTECH CO., LTD., priority 2011, published 2013).

Assays:
[1] = target: T1, benzodiazepine (BZ1) receptors (Homo sapiens, UniProt P14867+P18507)
T1 sequence (P14867 28-456): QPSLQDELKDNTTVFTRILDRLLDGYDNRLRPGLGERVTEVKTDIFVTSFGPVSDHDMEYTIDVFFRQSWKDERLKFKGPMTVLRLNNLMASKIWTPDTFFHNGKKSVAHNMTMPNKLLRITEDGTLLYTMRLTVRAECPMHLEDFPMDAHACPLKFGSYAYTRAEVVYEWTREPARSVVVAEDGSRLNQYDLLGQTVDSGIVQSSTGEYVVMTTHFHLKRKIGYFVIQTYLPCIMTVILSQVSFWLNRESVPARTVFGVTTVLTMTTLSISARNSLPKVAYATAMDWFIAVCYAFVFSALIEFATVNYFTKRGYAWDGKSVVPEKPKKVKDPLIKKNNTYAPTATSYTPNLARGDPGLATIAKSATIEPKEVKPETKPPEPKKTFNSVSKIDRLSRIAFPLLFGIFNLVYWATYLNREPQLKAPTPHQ
T1 sequence (P18507 40-467 limits assumed): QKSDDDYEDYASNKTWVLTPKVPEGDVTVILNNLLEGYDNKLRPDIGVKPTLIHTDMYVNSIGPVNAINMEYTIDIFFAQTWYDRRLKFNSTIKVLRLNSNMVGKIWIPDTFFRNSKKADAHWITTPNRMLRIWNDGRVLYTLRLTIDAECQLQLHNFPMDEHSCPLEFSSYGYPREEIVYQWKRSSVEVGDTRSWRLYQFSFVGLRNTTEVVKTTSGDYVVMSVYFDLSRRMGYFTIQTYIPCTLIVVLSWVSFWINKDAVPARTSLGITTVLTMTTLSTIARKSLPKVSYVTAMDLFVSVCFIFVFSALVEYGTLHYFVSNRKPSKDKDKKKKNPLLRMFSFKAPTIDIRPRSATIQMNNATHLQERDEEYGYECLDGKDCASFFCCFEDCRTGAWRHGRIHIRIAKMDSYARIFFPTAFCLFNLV
T1 sequence (P47870 25-512 partner limits assumed): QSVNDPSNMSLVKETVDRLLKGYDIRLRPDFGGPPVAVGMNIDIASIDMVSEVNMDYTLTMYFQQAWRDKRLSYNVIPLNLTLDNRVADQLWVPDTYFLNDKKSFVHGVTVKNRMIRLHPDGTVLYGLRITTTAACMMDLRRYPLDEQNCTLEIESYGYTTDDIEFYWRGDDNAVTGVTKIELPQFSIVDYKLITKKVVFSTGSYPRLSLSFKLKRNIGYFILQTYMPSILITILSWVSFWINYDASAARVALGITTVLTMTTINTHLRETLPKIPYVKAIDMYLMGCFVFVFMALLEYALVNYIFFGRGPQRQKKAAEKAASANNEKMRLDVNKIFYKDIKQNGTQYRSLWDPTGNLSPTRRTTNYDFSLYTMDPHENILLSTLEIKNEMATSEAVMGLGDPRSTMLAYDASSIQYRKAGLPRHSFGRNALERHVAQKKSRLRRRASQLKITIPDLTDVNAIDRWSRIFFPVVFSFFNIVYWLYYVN

CCN(C(C)=O)c1cccc(-c2ccnc3c(C#N)cnn23)c1 [Zaleplon, N-[3-(3-cyanopyrazolo-[1,5-a]-pyrimidin-7-yl)-phenyl]-N-ethyl acetamide]
binding to the BZ1 receptor [1]: more weakly bound to the receptor than is Zolpidem | solubility in aqueous media: poorly soluble
